{"source": "patent US20100130432A1", "about": "“Non-Natural Amino Acids and Neurotensin Analogues Thereof” (priority 2005, published 2010)", "key": {"[1]": {"molecular_target": "NTR-1 (Homo sapiens, UniProt P30989)", "sequence (P30989 whole entry, species assumed)": "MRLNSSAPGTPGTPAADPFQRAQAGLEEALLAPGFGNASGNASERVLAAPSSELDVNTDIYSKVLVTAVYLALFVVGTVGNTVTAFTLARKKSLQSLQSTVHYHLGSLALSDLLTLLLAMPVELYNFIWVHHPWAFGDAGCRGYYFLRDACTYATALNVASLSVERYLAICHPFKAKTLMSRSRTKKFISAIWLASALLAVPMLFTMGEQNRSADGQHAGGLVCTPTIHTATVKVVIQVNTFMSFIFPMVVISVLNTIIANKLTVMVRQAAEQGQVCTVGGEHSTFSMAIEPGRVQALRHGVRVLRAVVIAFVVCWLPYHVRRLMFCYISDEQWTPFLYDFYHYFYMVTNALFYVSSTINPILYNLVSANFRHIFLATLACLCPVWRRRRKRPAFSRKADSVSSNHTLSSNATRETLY", "assay": "Competitive NTR binding versus radiolabeled NT[8-13]"}, "[2]": {"system": "rats", "assay": "Hotplate assay", "format": "in vivo, rat", "from_the_text": "Animals. Experimentally naïve male Sprague-Dawley rats from Charles River Laboratories, Raleigh, N.C. (230-260 g) or Harlan, Prattville Ala. (240-280 g), were maintained 4 per cage in animal quarters on a regular light/dark cycle (lights on 0600-1800) with ad libitum food and water for approximately 1 week before the experiment. The range of body weights on the 2 days of testing was 230-260 grams. The experiment was done on one day, with animals allowed to recover for three days before experiments are repeated.\nPeptide Preparation. Test articles are prepared at the desired concentration in saline for either IP injection or gavage administration with N=6 for each dose and vehicle. Morphine (5 mg/kg) is used as a control for certain protocols. […] Apomorphine HCl (Sigma-Aldrich, St. Louis, Mo.) was dissolved in distilled water at a concentration of 5 mg/mL within 40 minutes of administration for injection at 1 mL/kg S.C. to give a dose of 5 mg/kg. When complete ED50s are determined, dosing range of the peptide will be 10, 3, 1, 0.3, 0.1 of the estimated ED50, covering two log orders of range.\nThe Hotplate Assay. The hotplate assay, a standard rat model for […] pain (see Le Bars et al., Pharmacol. Rev. 53: 597-652 (2001) and Chapman et al., Pain 22:1-31 (2002)), was performed as follows. A hotplate maintained at 52° C. to 53° C. was enclosed on four sides in a plexiglass chamber that extended 6 in. above the plate. Animals were placed on the plate, and the latency between the time a rat was placed on the surface and when it lifts or licks a back paw (indicative of pain sensation) was determined. Animals are removed immediately at the cutoff latency of 30 seconds. Assays are scored as the percent of maximal possible effect (% MPE) defined as 100%, which corresponds to the rats remaining on the hotplate for 30 seconds without responding. Thus, % MPE are calculated using the following equation: % MPE=[(post-drug latency−pre-drug latency)/(cut-off pre-drug latency)]×100%. N=6 or greater for all experiments.\nTmax indicates the time after dosing in which a maximum response was observed."}, "[3]": {"molecular_target": "NTR-2 (Homo sapiens, UniProt O95665)", "sequence (O95665 whole entry, species assumed)": "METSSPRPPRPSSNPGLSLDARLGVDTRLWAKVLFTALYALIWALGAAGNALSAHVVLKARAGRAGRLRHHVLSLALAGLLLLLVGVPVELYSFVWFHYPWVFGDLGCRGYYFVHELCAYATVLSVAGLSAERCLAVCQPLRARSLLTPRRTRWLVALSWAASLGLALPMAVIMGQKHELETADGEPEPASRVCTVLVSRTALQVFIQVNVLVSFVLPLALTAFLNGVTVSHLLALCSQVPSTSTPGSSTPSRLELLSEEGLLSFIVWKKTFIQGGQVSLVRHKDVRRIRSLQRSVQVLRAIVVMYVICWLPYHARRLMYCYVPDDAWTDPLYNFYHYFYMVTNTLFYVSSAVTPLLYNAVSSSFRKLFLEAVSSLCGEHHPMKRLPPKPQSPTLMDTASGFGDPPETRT", "assay": "Functional agonism: induction of cAMP and inositol phosphate production", "format": "cell-based"}, "[4]": {"conditions": "5 or 30 min incubation at 37° C."}, "[5]": {"system": "adrenergic (alpha1, alpha 2, beta), dopamine, histamine (H1, H2, H3), muscarinic (central, peripheral), nicotinic, opioid (nonselective), orphanin, serotonin …", "conditions": "10^−9, 10^−7 10^−5 M"}, "[6]": {"system": "Brattleboro rats", "conditions": "orally dosed"}}, "note": "Non-standard residues stand in square brackets, D forms with d. Residues, ends and D or L forms follow the SMILES beside them. *: point of attachment. Tle = CC(C)(C)[C@H](N)C(=O)O; X1 = C[C@@H](CCCCCN)C(=O)*", "data": [{"compound": "CC(C)C[C@H](NC(=O)[C@@H](NC(=O)[C@H](Cc1ccc(O)cc1)NC(=O)[C@@H]1CCCN1C(=O)[C@H](CCCNC(=N)N)NC(=O)[C@@H](C)CCCCCN)C(C)(C)C)C(=O)O", "note": "[ABS201, hLys-Arg-Pro-Tyr-t-Leu-Leu] (X1-RPY[Tle]L-OH)", "values": [{"measurement": "EC50", "setting": "[1]", "result": "3.92 ± 0.01", "unit": "nM"}, {"measurement": "IC50", "setting": "[1]", "result": "11.2 ± 0.3", "unit": "nM"}, {"measurement": "affinity for the target receptor (NTR1)", "setting": "[1]", "result": "nM affinity"}, {"measurement": "binds less effectively than its parent", "setting": "[1]", "result": 50, "unit": "fold"}, {"measurement": "analgesic activity (% MPE) compared with morphine", "setting": "[2]; ABS201 5 mg/kg, Morphine 5 mg/kg", "result": "comparable in extent and duration to morphine"}, {"measurement": "tolerance to the analgesic activity", "setting": "[2]; dosed daily for five days", "result": "do not become tolerant"}, {"measurement": "MPE (I.P.)", "setting": "[2]; hotplate, IP at 10 mg/kg", "result": 100, "unit": "%"}, {"measurement": "Tmax (I.P.) of % MPE", "setting": "[2]; hotplate, IP at 10 mg/kg", "result": "15-45"}, {"measurement": "MPE (oral)", "setting": "[2]; hotplate, orally at 20 mg/kg", "result": 39, "unit": "%"}, {"measurement": "Tmax (Oral) of % MPE", "setting": "[2]; hotplate, orally at 20 mg/kg", "result": 30}, {"measurement": "Functional NTR-2 Agonist", "setting": "[3]", "result": "Yes"}, {"measurement": "binding to plasma proteins", "setting": "[4]", "result": "little or no binding"}, {"measurement": "Toxicity, dose without toxicity", "setting": "single acute dose I.P.", "result": "(>100 x ED50)"}, {"measurement": "Toxicity", "setting": "single acute dose at 100x ED50 I.P.", "result": "No"}, {"measurement": "displacement of the receptors' endogenous substrate", "setting": "[5]", "result": "No displacement"}, {"measurement": "reversal of PPI deficit", "setting": "[6]", "result": "reverses PPI"}]}]}
